# PubChem BioAssay AID256 (DTP/NCI, 2004)
# Values joined by “and” are separate entries in the source; they are usually repeats but may differ in a detail not shown here. Equal values may be shown once. Toxic doses and inconclusive results are not listed.
# System: CD2F1 mice, L1210 leukemia ip, survival T/C
# Experiment: NCI In Vivo Anticancer Drug Screen. Data for tumor model L1210 Leukemia (intraperitoneal) in CD2F1 (CDF1) mice
# Conditions: higher = longer survival
# Procedure, shortened: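 Antitumor effect is scored in animals hosting a serially transplanted tumor. Values compare compound-dosed animals against vehicle-only controls as a simple quotient.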
# [1] = endpoint: mean survival time, dose: 100.0 mg/kg/injection, schedule: Q01DX009 (ip), vehicle: saline with Tween-80
# [2] = endpoint: mean survival time, dose: 100.0 mg/kg/injection, schedule: Q04DX003 (ip), vehicle: saline with Tween-80
# [3] = endpoint: mean survival time, dose: 200.0 mg/kg/injection, schedule: Q04DX003 (ip), vehicle: saline with Tween-80
# [4] = endpoint: mean survival time, dose: 400.0 mg/kg/injection, schedule: Q04DX003 (ip), vehicle: saline with Tween-80
smiles,measurement,setting,value
O=S(=O)(Oc1ccccc1)c1c(F)c(F)c(F)c(F)c1F,T/C,"endpoint: mean survival time, dose: 25.0 mg/kg/injection, schedule: Q01DX009 (ip), vehicle: saline with Tween-80",94 % of control
same,T/C,"endpoint: mean survival time, dose: 50.0 mg/kg/injection, schedule: Q01DX009 (ip), vehicle: saline with Tween-80",94 % of control
same,T/C,[1],90 % of control
same,T/C,[2],95 % of control
Nc1cc(=O)c2ncn(C3OC(CO)C(O)C3O)c2[nH]1 (stereo unspecified),T/C,"endpoint: mean survival time, dose: 25.0 mg/kg/injection, schedule: Q01DX005 (ip), vehicle: other",98 % of control
same,T/C,"endpoint: mean survival time, dose: 50.0 mg/kg/injection, schedule: Q01DX005 (ip), vehicle: other",93 % of control
same,T/C,"endpoint: mean survival time, dose: 100.0 mg/kg/injection, schedule: Q01DX005 (ip), vehicle: other",87 % of control
same,T/C,"endpoint: mean survival time, dose: 200.0 mg/kg/injection, schedule: Q01DX005 (ip), vehicle: other",106 % of control
same,T/C,"endpoint: mean survival time, dose: 400.0 mg/kg/injection, schedule: Q01DX005 (ip), vehicle: other",103 % of control
NC(CSC(c1ccccc1)(c1ccccc1)c1ccc(CBr)cc1)C(=O)O (stereo unspecified),T/C,"endpoint: mean survival time, dose: 12.5 mg/kg/injection, schedule: Q01DX009 (ip), vehicle: other",107 % of control
same,T/C,"endpoint: mean survival time, dose: 25.0 mg/kg/injection, schedule: Q01DX009 (ip), vehicle: other",107 % of control
same,T/C,"endpoint: mean survival time, dose: 50.0 mg/kg/injection, schedule: Q01DX009 (ip), vehicle: other",109 % of control
same,T/C,"endpoint: mean survival time, dose: 100.0 mg/kg/injection, schedule: Q01DX009 (ip), vehicle: other",115 % of control
same,T/C,"endpoint: mean survival time, dose: 400.0 mg/kg/injection, schedule: Q01DX009 (ip), vehicle: other",164 % of control
CC(O)c1cc2ccccc2n1C (stereo unspecified),T/C,"endpoint: mean survival time, dose: 100.0 mg/kg/injection, schedule: Q01DX001 (ip), vehicle: saline with Tween-80",98 % of control
same,T/C,"endpoint: mean survival time, dose: 200.0 mg/kg/injection, schedule: Q01DX001 (ip), vehicle: saline with Tween-80",103 % of control
same,T/C,"endpoint: mean survival time, dose: 400.0 mg/kg/injection, schedule: Q01DX001 (ip), vehicle: saline with Tween-80",101 % of control
O=C(Nc1ccccc1)OCC1CC2C=CC1C2 (stereo unspecified),T/C,"endpoint: mean survival time, dose: 75.0 mg/kg/injection, schedule: Q01DX001 (ip), vehicle: saline with Tween-80",111 % of control
same,T/C,"endpoint: mean survival time, dose: 150.0 mg/kg/injection, schedule: Q01DX001 (ip), vehicle: saline with Tween-80",94 % of control
same,T/C,"endpoint: mean survival time, dose: 300.0 mg/kg/injection, schedule: Q01DX001 (ip), vehicle: saline with Tween-80",94 % of control
CCC1(O)CC2CN(CCc3c([nH]c4ccccc34)C(C(=O)OC)(c3cc4c(cc3OC)N(C)C3C(O)(C(N)=O)C(O)C5(CC)C=CCN6CCC43C65)C2)C1 (stereo unspecified) (tested in a mixture with another compound),T/C,"endpoint: mean survival time, dose: 0.13 mg/kg/injection, schedule: Q01DX009 (ip), vehicle: water",121 % of control
same,T/C,"endpoint: mean survival time, dose: 0.22 mg/kg/injection, schedule: Q01DX009 (ip), vehicle: water",123 % of control
same,T/C,"endpoint: mean survival time, dose: 0.23 mg/kg/injection, schedule: Q04DX003 (ip), vehicle: water",121 % of control
same,T/C,"endpoint: mean survival time, dose: 0.36 mg/kg/injection, schedule: Q01DX009 (ip), vehicle: water",122 % of control
same,T/C,"endpoint: mean survival time, dose: 0.39 mg/kg/injection, schedule: Q04DX003 (ip), vehicle: water",124 % of control
same,T/C,"endpoint: mean survival time, dose: 0.52 mg/kg/injection, schedule: Q04DX003 (ip), vehicle: water",106 % of control
same,T/C,"endpoint: mean survival time, dose: 1.44 mg/kg/injection, schedule: Q04DX003 (ip), vehicle: water",112 % of control
same,T/C,"endpoint: mean survival time, dose: 1.8 mg/kg/injection, schedule: Q04DX003 (ip), vehicle: water",164 % of control
same,T/C,"endpoint: mean survival time, dose: 4.0 mg/kg/injection, schedule: Q04DX003 (ip), vehicle: water",104 % of control
same,T/C,"endpoint: mean survival time, dose: 130.0 micrograms/kg/injection, schedule: Q01DX009 (ip), vehicle: water",102 % of control
same,T/C,"endpoint: mean survival time, dose: 216.0 micrograms/kg/injection, schedule: Q01DX009 (ip), vehicle: water",107 % of control
same,T/C,"endpoint: mean survival time, dose: 360.0 micrograms/kg/injection, schedule: Q01DX009 (ip), vehicle: water",113 % of control
same,T/C,"endpoint: mean survival time, dose: 600.0 micrograms/kg/injection, schedule: Q01DX009 (ip), vehicle: water",120 % of control
same,T/C,"endpoint: mean survival time, dose: 1000.0 micrograms/kg/injection, schedule: Q01DX009 (ip), vehicle: water",122 % of control
CCOC(=O)Nc1cc(NC/C(CCc2ccccc2)=N/O)c([N+](=O)[O-])c(N)n1,T/C,"endpoint: mean survival time, dose: 100.0 mg/kg/injection, schedule: Q01DX001 (ip), vehicle: Klucel (hydroxypropylcellulose) (HPC)",96 % of control
same,T/C,"endpoint: mean survival time, dose: 200.0 mg/kg/injection, schedule: Q01DX001 (ip), vehicle: Klucel (hydroxypropylcellulose) (HPC)",91 % of control
same,T/C,"endpoint: mean survival time, dose: 400.0 mg/kg/injection, schedule: Q01DX001 (ip), vehicle: Klucel (hydroxypropylcellulose) (HPC)",90 % of control
O=S1(=O)CC23CC=CCC2(CC=CC3)C1 (stereo unspecified),T/C,"endpoint: mean survival time, dose: 100.0 mg/kg/injection, schedule: Q04DX003 (ip), vehicle: other",100 % of control
same,T/C,"endpoint: mean survival time, dose: 200.0 mg/kg/injection, schedule: Q04DX003 (ip), vehicle: other",102 % of control
C[N+](C)(CC(=O)O)c1ccccc1,T/C,"endpoint: mean survival time, dose: 100.0 mg/kg/injection, schedule: Q04DX003 (ip), vehicle: saline",98 % of control
same,T/C,"endpoint: mean survival time, dose: 200.0 mg/kg/injection, schedule: Q04DX003 (ip), vehicle: saline",96 % of control
same,T/C,"endpoint: mean survival time, dose: 400.0 mg/kg/injection, schedule: Q04DX003 (ip), vehicle: saline",108 % of control
CCCCCCOc1ccc(/C=N\N=C\c2ccc(OCCCCCC)cc2)cc1,T/C,[2],91 % of control
same,T/C,[3],89 % of control
same,T/C,[4],91 % of control
O=c1nc(OCCO)c([N+](=O)[O-])c(C(Cl)(Cl)Cl)[nH]1,T/C,[2],96 % of control
same,T/C,[3],97 % of control
same,T/C,[4],89 % of control
Cc1ccc([N+](=O)[O-])cc1NC(=O)NNC(=O)CNC(=O)Nc1cccc(C(F)(F)F)c1,T/C,[1],92 % of control
same,T/C,"endpoint: mean survival time, dose: 200.0 mg/kg/injection, schedule: Q01DX009 (ip), vehicle: saline with Tween-80",89 % of control
same,T/C,"endpoint: mean survival time, dose: 400.0 mg/kg/injection, schedule: Q01DX009 (ip), vehicle: saline with Tween-80",96 % of control
C=C1CC(C)(Cn2c(N)nc3nc[nH]c3c2=O)OC1=O (stereo unspecified),T/C,"endpoint: median survival time, dose: 5.38 mg/kg/injection, schedule: Q01DX005 (ip), vehicle: water",97 % of control
same,T/C,"endpoint: median survival time, dose: 10.75 mg/kg/injection, schedule: Q01DX005 (ip), vehicle: water",97 % of control
same,T/C,"endpoint: median survival time, dose: 21.5 mg/kg/injection, schedule: Q01DX005 (ip), vehicle: water",97 % of control
same,T/C,"endpoint: median survival time, dose: 43.0 mg/kg/injection, schedule: Q01DX005 (ip), vehicle: water",112 % of control
O=C1NC(O)CCN1C1OC(CO)C(O)C1O (stereo unspecified),T/C,"endpoint: median survival time, dose: 10.0 mg/kg/injection, schedule: Q01DX009 (ip), vehicle: saline",106 % of control and 107 % of control
same,T/C,"endpoint: median survival time, dose: 12.5 mg/kg/injection, schedule: Q01DX001 (oral), vehicle: saline",101 % of control
same,T/C,"endpoint: median survival time, dose: 21.88 mg/kg/injection, schedule: Q01DX009 (ip), vehicle: saline",102 % of control
same,T/C,"endpoint: median survival time, dose: 25.0 mg/kg/injection, schedule: Q01DX001 (oral), vehicle: saline",102 % of control
same,T/C,"endpoint: median survival time, dose: 30.0 mg/kg/injection, schedule: Q01DX009 (ip), vehicle: saline",104 % of control
same,T/C,"endpoint: median survival time, dose: 50.0 mg/kg/injection, schedule: Q01DX001 (oral), vehicle: saline",101 % of control
same,T/C,"endpoint: median survival time, dose: 100.0 mg/kg/injection, schedule: Q01DX001 (oral), vehicle: saline",97 % of control
same,T/C,"endpoint: median survival time, dose: 100.0 mg/kg/injection, schedule: Q01DX009 (ip), vehicle: saline",105 % of control
same,T/C,"endpoint: median survival time, dose: 200.0 mg/kg/injection, schedule: Q01DX001 (oral), vehicle: saline",102 % of control
same,T/C,"endpoint: median survival time, dose: 300.0 mg/kg/injection, schedule: Q01DX009 (ip), vehicle: saline",106 % of control
same,T/C,"endpoint: median survival time, dose: 1000.0 mg/kg/injection, schedule: Q01DX009 (ip), vehicle: saline",100 % of control and 108 % of control
NC(=O)C1CC=CCC1 (stereo unspecified),T/C,"endpoint: mean survival time, dose: 25.0 mg/kg/injection, schedule: Q04DX002 (ip), vehicle: saline with Tween-80",110 % of control
same,T/C,"endpoint: mean survival time, dose: 50.0 mg/kg/injection, schedule: Q04DX002 (ip), vehicle: saline with Tween-80",98 % of control
same,T/C,"endpoint: mean survival time, dose: 100.0 mg/kg/injection, schedule: Q04DX002 (ip), vehicle: saline with Tween-80",94 % of control
same,T/C,"endpoint: mean survival time, dose: 200.0 mg/kg/injection, schedule: Q04DX002 (ip), vehicle: saline with Tween-80",105 % of control
CCOC(=O)NCC(Cl)(Cl)Cl,T/C,"endpoint: mean survival time, dose: 37.5 mg/kg/injection, schedule: Q01DX009 (ip), vehicle: saline with Tween-80",98 % of control
same,T/C,"endpoint: mean survival time, dose: 75.0 mg/kg/injection, schedule: Q01DX009 (ip), vehicle: saline with Tween-80",98 % of control
same,T/C,"endpoint: mean survival time, dose: 150.0 mg/kg/injection, schedule: Q01DX009 (ip), vehicle: saline with Tween-80",102 % of control
NNC(=O)CC(O)(C1CC1)C1CC1,T/C,"endpoint: mean survival time, dose: 100.0 mg/kg/injection, schedule: Q04DX002 (ip), vehicle: saline",112 % of control
same,T/C,"endpoint: mean survival time, dose: 200.0 mg/kg/injection, schedule: Q04DX002 (ip), vehicle: saline",96 % of control
same,T/C,"endpoint: mean survival time, dose: 400.0 mg/kg/injection, schedule: Q04DX002 (ip), vehicle: saline",100 % of control
